Laboratory results reported in patent US7576094B2, “Spiro derivatives as lipoxygenase inhibitors” (Eli Lilly and Company, priority 2004, dated 2009).
pEC50, pIC50: −log10 of the molar value.

Legend:
[1] = target: T1, porcine leukocyte 12/15-Lipoxygenase (Sus scrofa, UniProt P16469); test: 12/15-Lipoxygenase Enzyme Assay; assay type: biochemical; conditions: 70 μM arachidonic acid, 10 minute incubation at room temperature, FOX reagent, absorbance at 620 nm; read-out: inhibition of 12/15-Lipoxygenase with an IC50
T1 sequence (P16469 1-663): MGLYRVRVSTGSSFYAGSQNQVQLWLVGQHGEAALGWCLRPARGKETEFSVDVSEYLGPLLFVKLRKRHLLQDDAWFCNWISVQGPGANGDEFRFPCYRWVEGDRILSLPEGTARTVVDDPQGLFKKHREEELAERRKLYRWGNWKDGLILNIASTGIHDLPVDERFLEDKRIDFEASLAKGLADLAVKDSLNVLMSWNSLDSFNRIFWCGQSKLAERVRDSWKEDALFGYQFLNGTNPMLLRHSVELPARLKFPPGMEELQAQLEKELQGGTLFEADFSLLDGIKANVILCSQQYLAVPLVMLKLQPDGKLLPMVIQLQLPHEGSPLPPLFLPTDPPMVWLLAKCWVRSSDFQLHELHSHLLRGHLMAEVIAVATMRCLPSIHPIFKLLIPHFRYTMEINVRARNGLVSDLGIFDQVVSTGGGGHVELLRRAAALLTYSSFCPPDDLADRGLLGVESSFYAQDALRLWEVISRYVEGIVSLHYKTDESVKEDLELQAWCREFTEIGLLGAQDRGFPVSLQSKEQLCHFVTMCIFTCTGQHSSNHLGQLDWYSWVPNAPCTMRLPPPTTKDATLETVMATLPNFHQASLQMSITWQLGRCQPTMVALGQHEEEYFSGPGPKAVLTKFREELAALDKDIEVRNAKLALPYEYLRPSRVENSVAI

[2] = test system: LTB4 production in human whole blood; test: Inhibition of LTB4 Production in Blood; assay type: cell-based; conditions: 1 h, 20 μM A23187, 60 minutes at 37° C., LTB4 in plasma by ELISA, read-out: protection against LTB4 at an EC50
How it was run: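 Citrated human whole blood preincubated 15 min at 37 °C with compound (top final 30 μM, 1:3 dilutions, quadruplicate), then stimulated with 20 μM A23187 for 60 min at 37 °C. Plasma LTB4 quantified by ELISA; IC50 from percent inhibition versus vehicle.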

Row | SMILES | pIC50 [1] | pEC50 [2]
1 | CONC1CC2(CCC2)Sc2cc(C)c(O)c(C)c21 (stereo not drawn) [4′-(methoxyamino)-5′,7′-dimethyl-3′,4′-dihydrospiro[cyclobutane-1,2′-thiochromen]-6′-ol] | > 5.30 | > 5.00
2 | CCONC1CC2(CCC2)Sc2cc(C)c(O)c(C)c21 (stereo not drawn) [4′-(ethoxyamino)-5′,7′-dimethyl-3′,4′-dihydrospiro[cyclobutane-1,2′-thiochromen]-6′-ol] | > 5.30 | > 5.00
3 | Cc1cc2c(c(C)c1O)CC1(CCC1)CO2 [5,7-dimethylspiro[chroman-3,1′-cyclobutan]-6-ol] | > 5.30 | > 5.00
4 | CCONC1CC2(CCC2)Sc2c(C)c(C)c(O)c(C)c21 (stereo not drawn) [4′-(ethoxyamino)-5′,7′,8′-trimethyl-3′,4′-dihydrospiro[cyclobutane-1,2′-thiochromen]-6′-ol] | > 5.30 | > 5.00
5 | Cc1cc2c(c(C)c1O)CCC1(CCC1)O2 [5,7-dimethyl-3,4-dihydrospiro[chromene-2,1′-cyclobutan]-6-ol] | > 5.30 | > 5.00
6 | CCONCC1=Cc2c(cc(C)c(O)c2C)OC12CCC2 [3-[(ethoxyamino)methyl]-5,7-dimethylspiro[chromene-2,1′-cyclobutan]-6-ol] | > 5.30 | > 5.00
7 | Cc1c(C)c2c(c(Cl)c1O)CCC1(CCC1)O2 [5-chloro-7,8-dimethyl-3,4-dihydrospiro[chromene-2,1′-cyclobutan]-6-ol] | > 5.30 | –
8 | CC(C)(C)c1cc2c(cc1O)CCC1(CCC1)O2 [7-tert-butyl-3,4-dihydrospiro[chromene-2,1′-cyclobutan]-6-ol] | > 5.30 | > 5.00
9 | Cc1cc2c(c(C)c1O)C=CC1(CCC1)O2 [5,7-dimethylspiro[chromene-2,1′-cyclobutan]-6-ol] | > 5.30 | > 5.00
10 | Cc1c(C)c2c(c(C)c1O)C1(CCC1)CC(C)(C)S2 [2′,2′,5′,7′,8′-pentamethyl-2′,3′-dihydrospiro[cyclobutane-1,4′-thiochromen]-6′-ol] | > 5.30 | > 5.00
11 | CONC1CC2(CCC2)Sc2c(C)c(C)c(O)c(C)c21 (stereo not drawn) [4′-(methoxyamino)-5′,7′,8′-trimethyl-3′,4′-dihydrospiro[cyclobutane-1,2′-thiochromen]-6′-ol] | > 5.30 | > 5.00
12 | Cc1c(C)c2c(c(C)c1O)CCC1(CC1)O2 [5,7,8-trimethyl-3,4-dihydrospiro[chromene-2,1′-cyclopropan]-6-ol] | > 5.30 | > 5.00
13 | CCc1cc2c(c(CC)c1O)CC(CSCC(=O)OC)C1(CCC1)O2 (stereo not drawn) [methyl 2-((5,7-diethyl-6-hydroxyspiro[chroman-2,1′-cyclobutane]-3-yl)methylthio)acetate] | > 5.30 | > 5.00
14 | COC(C)C1=Cc2c(C)c(O)c(C)c(C)c2OC12CCC2 (stereo not drawn) [3-(1-methoxyethyl)-5,7,8-trimethylspiro[chromene-2,1′-cyclobutan]-6-ol] | > 5.30 | > 5.00
15 | CO/N=C1\CC2(CCC2)Sc2c(C)c(C)c(O)c(C)c21 [6′-hydroxy-5′,7′,8′-trimethylspiro[cyclobutane-1,2′-thiochroman]-4′(3′H)-one O-methyloxime] | > 5.30 | > 5.00
16 | Cc1c(O)cc2c(c1C)OC1(CCC1)CC2 [7,8-dimethyl-3,4-dihydrospiro[chromene-2,1′-cyclobutan]-6-ol] | > 5.30 | > 5.00
17 | Cc1c(C)c2c(c(C)c1O)C1(CCC1)CCS2 [5′,7′,8′-trimethyl-2′,3′-dihydrospiro[cyclobutane, 1,4′-thiochromen]-6′-ol] | > 5.30 | –
18 | Cc1c(O)c(C(C)(C)C)cc2c1CCC1(CCC1)O2 [7-tert-butyl-5-methyl-3,4-dihydrospiro[chromene-2,1′-cyclobutan]-6-ol] | > 5.30 | > 5.00
19 | CCO/N=C/C1=Cc2c(cc(C)c(O)c2C)OC12CCC2 [6-hydroxy-5,7-dimethylspiro[chromene-2,1′-cyclobutane]-3-carbaldehyde O-ethyloxime] | > 5.30 | > 5.00
